This note sets out measurements from patent publication US4387218A, “Anthracycline antibiotics FA-1180 B and B1, or salts thereof” (priority 1979, dated 1983).

In brackets after ≈: the same amount, converted by molar mass. Counter-ions that a name gives are not always drawn. Like-named read-outs stand apart in the source and are kept apart here.

The test system of one data set is P-388 Mice Leukemia. Put plainly: therapeutic effect against P-388 Mice Leukemia. It is filed as in vivo. To be noted: daily on days 1 to 5, 1×10^6 P-388 cells intraperitoneally. The procedure: (§1) The test was conducted in accordance with the method described in Cancer Chemotherapy Reports, Part 3, Vol. 3, No. 2, p. 9, September 1972. Mice inoculated intraperitoneally with 1×10^6 cells of P-388 were administered with the test compounds daily on days 1 to 5. The activity (T/C) of the test compounds is represented by the ratio of the median survival time of the treated group to that of the control group.

The subject of the next data set is Yoshida rat sarcoma. Put plainly: growth inhibitory effect on Yoshida rat sarcoma cells. It is filed as cell-based. The following applies: for IC50: Rattus norvegicus, YOSHIDA, read-out: Growth Inhibitory Effect IC50. The procedure: (§2) The tumor cell suspension was prepared from cells taken from ascites of rats to which 1×10^6 cells of Yoshida rat sarcoma had been inoculated before 3 to 5 days. The ascites was diluted with a medium which was constituted from 80 to 90% (v/v) Fischer's solution containing 20 to 10% (v/v) desensitized horse serum. One half milliliter of the cell suspension containing 5~20×10^4 cells thus prepared was placed in a small test tube. A substance to be tested was dissolved and diluted with the same medium and 0.5 ml of the diluted solution was added to the cell suspension. To the control tube was added 0.5 ml of the medium. 2 to 5 tubes were used for each experimental units. They were incubated statically at 37° C. for 2 to 3 days. After the incubation, growth was measured by observing the quantity of precipitated cells on the bottom of the test tube with the naked eyes. Growth inhibitory effect of a substance was expressed by the concentration pointing 50 percent growth of the control growth.
IC50 : The concentration pointing 50% growth of the control growth.

Another data set has as its system Pseudomonas aeruginosa H. Nature of the data set: minimum inhibitory concentration (MIC) by the agar dilution method, Pseudomonas aeruginosa H. In kind it is cell-based. To be noted: Brain heart infusion agar, 18 hrs after inoculation. As to the method: (§3) The minimum inhibitory concentration (MIC) of the FA-118O A, A1, B or B1 was determined by the agar dilution method, and the results are indicated in Table 5 below.
(§4) (1) Medium: Brain heart infusion agar
(§5) (2) Determined: 18 hrs after inoculation
(In agar dilution, organisms are placed on agar that contains the substance at set levels.)

The next data set has as its system Bacillus subtilis 17 A. Put plainly: minimum inhibitory concentration (MIC) by the agar dilution method, Bacillus subtilis 17 A. The following applies: Brain heart infusion agar, 18 hrs after inoculation. It is filed as cell-based. The procedure:
as §3, §4, §5

The subject of data set [1] is Staphylococcus aureus 209 P. Put plainly: minimum inhibitory concentration (MIC) by the agar dilution method, Staphylococcus aureus 209 P. In kind it is cell-based. The following applies: Brain heart infusion agar, 18 hrs after inoculation. The procedure: as §3, §4, §5
For data set [2], the system named is Salmonella typhimurium IFO 12529. Nature of the data set: minimum inhibitory concentration (MIC) by the agar dilution method, Salmonella typhimurium IFO 12529. It is filed as cell-based. The following applies: Brain heart infusion agar, 18 hrs after inoculation. As to the method: as §3, §4, §5
A further data set relates to Escherichia coli P3478. Nature of the data set: minimum inhibitory concentration (MIC) by the agar dilution method, Escherichia coli P3478. In kind it is cell-based. To be noted: Brain heart infusion agar, 18 hrs after inoculation. The procedure: as §3, §4, §5
The next data set has as its system Escherichia coli W3110. Nature of the data set: minimum inhibitory concentration (MIC) by the agar dilution method, Escherichia coli W3110. It is filed as cell-based. To be noted: Brain heart infusion agar, 18 hrs after inoculation. As to the method:
as §3, §4, §5

The next data set has as its system tumor. Nature of the data set: antitumor activity (summary statement). The following applies: summary in words. As to the method:
as §1, §2

Data set [3] relates to Serratia marcescens IFO 12648. Put plainly: minimum inhibitory concentration (MIC) by the agar dilution method, Serratia marcescens IFO 12648. In kind it is cell-based. The following applies: 18 hrs after inoculation. As to the method:
as §3, §4, §5

The next data set deals with Escherichia coli NIHJ. Nature of the data set: minimum inhibitory concentration (MIC) by the agar dilution method, Escherichia coli NIHJ. It is filed as cell-based. To be noted: Brain heart infusion agar, 18 hrs after inoculation. The procedure: as §3, §4, §5
For a further data set, the system named is Gram-positive bacteria. Nature of the data set: ability to inhibit the growth of Gram-positive bacteria (summary statement). The following applies: summary in words. It is filed as cell-based. As to the method: as §3
The next data set has as its system Bacillus subtilis 45 T. Nature of the data set: minimum inhibitory concentration (MIC) by the agar dilution method, Bacillus subtilis 45 T. In kind it is cell-based. The following applies: Brain heart infusion agar, 18 hrs after inoculation. As to the method: as §3, §4, §5
In data set [4] the test system is Klebsiella pneumoniae IFO 3512. Put plainly: minimum inhibitory concentration (MIC) by the agar dilution method, Klebsiella pneumoniae IFO 3512. It is filed as cell-based. The following applies: 18 hrs after inoculation. As to the method:
as §3, §4, §5

A further data set has as its system Staphylococcus aureus. Put plainly: minimum inhibitory concentration (MIC) by the agar dilution method, Staphylococcus aureus. In kind it is cell-based. To be noted: Brain heart infusion agar, 18 hrs after inoculation. As to the method:
as §3, §4, §5

Data set [5] deals with Bacillus subtilis PCI 219. Nature of the data set: minimum inhibitory concentration (MIC) by the agar dilution method, Bacillus subtilis PCI 219. In kind it is cell-based. The following applies: Brain heart infusion agar, 18 hrs after inoculation. As to the method:
as §3, §4, §5

The test system of another data set is Candida albicans. Put plainly: minimum inhibitory concentration (MIC) by the agar dilution method, Candida albicans. To be noted: Brain heart infusion agar, 18 hrs after inoculation. In kind it is cell-based. The procedure: as §3, §4, §5
A further data set deals with Bacillus cereus IAM 1729. Put plainly: minimum inhibitory concentration (MIC) by the agar dilution method, Bacillus cereus IAM 1729. It is filed as cell-based. The following applies: IAM1729, Brain heart infusion agar, 18 hrs after inoculation. The procedure:
as §3, §4, §5

A short description of the next data set: Solubility. It is filed as physicochemical.
[6] abbreviates: concentration pointing 50% growth of the control growth, 37° C., 2 to 3 days, Fischer's solution with horse serum.
Setting [7] is: Salmonella enterica, read-out: MIC.
Setting [8] is: IFO12648, Brain heart infusion agar, read-out: MIC.
Where [9] appears, read: IFO3512, Brain heart infusion agar, read-out: MIC.
Where [10] appears, read: Bacillus subtilis, PCI219, 18 h, read-out: MIC.

For the compound `O=c1[nH]cc(F)c(=O)[nH]1` [5-FU, reference compound], in the data set with P-388 Mice Leukemia (20 mg/kg/day), the “Activity (T/C), ratio of median survival time of treated group to control group” value (shortened to “Activity (T/C), ratio”) is on record as 198%.
For orientation: IC50 means the concentration at which inhibition is half-maximal. Take `COc1cccc2c1C(=O)c1c(O)c3c(c(O)c1C2=O)C[C@@](O)(C(=O)CO)C[C@@H]3O[C@H]1C[C@H](N)[C@H](O)[C@H](C)O1` [Adriamycin hydrochloride, reference compound]: the IC50 with Yoshida rat sarcoma came to 0.01 µg/mL.
On to `CC(=O)C1(O)Cc2c(O)c3c(c(O)c2C(OC2CC(N)C(OC(CC(C)O)OC(C)CO)C(C)O2)C1)C(=O)c1c(O)cccc1C3=O` (centres unmarked) [FA-1180 A1], for which the MIC in the data set with Pseudomonas aeruginosa H is over 100 ppm; in the data set on Bacillus subtilis 17 A, 1.56 ppm; in [1], 12.5 ppm; in data set [2] it was over 100 ppm; in the data set on Escherichia coli P3478, over 100 ppm; against Escherichia coli W3110, over 100 ppm. The MIC is recorded as over 100 ppm in [3] (Brain heart infusion agar); over 100 ppm against Escherichia coli NIHJ; under 0.2 ppm against Bacillus subtilis 45 T; over 100 ppm in [4] (Brain heart infusion agar); 12.5 ppm against Staphylococcus aureus; 1.56 ppm in data set [5]. This compound also returned an MIC against Candida albicans of over 100 ppm. The “Growth Inhibitory Effect IC50” value in the data set with Yoshida rat sarcoma (setting [6]) was 10^-3 μg/ml. Also, in the data set with tumor, the antitumor activity result is “antitumor activity”. For the same compound, the “ability to inhibit the growth of Gram-positive bacteria” value (“ability to inhibit the growth” below) with Gram-positive bacteria is on record as “strong ability to inhibit the growth of Gram-positive bacteria”.
For `CC(=O)C1(O)Cc2c(O)c3c(c(O)c2C(OC2CC(N)C(OC(CC(C)O)OC(C)CO)C(C)O2)C1)C(=O)c1c(O)cccc1C3=O` (centres unmarked) [FA-1180 A], the MIC was over 100 µg/mL with Pseudomonas aeruginosa H (read-out: MIC); 1.56 µg/mL (≈ 2.36 µM) with Bacillus subtilis 17 A (read-out: MIC); 12.5 µg/mL (≈ 18.9 µM) in [1] (read-out: MIC); over 100 µg/mL in data set [2] (setting [7]); over 100 µg/mL with Escherichia coli P3478 (read-out: MIC); over 100 µg/mL with Escherichia coli W3110 (read-out: MIC). The MIC in [3] (setting [8]) was over 100 µg/mL; in the data set with Escherichia coli NIHJ (read-out: MIC), over 100 µg/mL; in the data set on Bacillus cereus IAM 1729, 3.12 µg/mL (≈ 4.74 µM); with Bacillus subtilis 45 T (read-out: MIC), under 0.2 µg/mL; in data set [4] (setting [9]) it was over 100 µg/mL; with Staphylococcus aureus (read-out: MIC), 12.5 µg/mL (≈ 18.9 µM). Moreover, the MIC is 1.56 µg/mL (≈ 2.36 µM) in [5] (setting [10]) and over 100 µg/mL in the data set on Candida albicans (read-out: MIC). Besides, in the data set on Yoshida rat sarcoma (setting [6]), the “Growth Inhibitory Effect IC50” value was 10^-2 μg/ml. Besides, the antitumor activity entry in the data set with tumor is “antitumor activity”. Further, in the data set on Gram-positive bacteria, the “ability to inhibit the growth” value is reported as “strong ability to inhibit the growth of Gram-positive bacteria”. The Solubility in chloroform result in “Solubility” was “soluble”. Moreover, the Solubility in methanol result in the data set “Solubility” was “freely soluble”. In addition, the Solubility in n-hexane entry in “Solubility” is listed as “slightly soluble”. For the same compound, the “Activity (T/C), ratio” value in the data set on P-388 Mice Leukemia (0.25 mg/kg/day) stood at 148%; in the data set on P-388 Mice Leukemia (0.5 mg/kg/day) it was 167%; in the data set on P-388 Mice Leukemia (1.0 mg/kg/day), 205%.
For the compound `CC(O)CC(OC(C)CO)OC1C(N)CC(OC2CC(O)(C(C)O)Cc3c(O)c4c(c(O)c32)C(=O)c2c(O)cccc2C4=O)OC1C` (centres unmarked) [FA-1180 B1], the MIC in the data set with Pseudomonas aeruginosa H was over 100 ppm; against Bacillus subtilis 17 A it was 12.5 ppm; in data set [1] it was 50 ppm; in [2] it was over 100 ppm; in the data set on Escherichia coli P3478, over 100 ppm; against Escherichia coli W3110, over 100 ppm. In addition, the MIC in data set [3] (Brain heart infusion agar) is recorded as over 100 ppm; in the data set with Escherichia coli NIHJ, over 100 ppm; against Bacillus subtilis 45 T, 0.4 ppm; in [4] (Brain heart infusion agar) it was over 100 ppm; in the data set with Staphylococcus aureus, 50 ppm; in data set [5], 3.125 ppm. The MIC with Candida albicans is listed as over 100 ppm. Moreover, the “Growth Inhibitory Effect IC50” value in the data set with Yoshida rat sarcoma (setting [6]) is 10^-2 μg/ml. Besides, the antitumor activity result in the data set on tumor was “antitumor activity”. Also, the “ability to inhibit the growth” value with Gram-positive bacteria was “strong ability to inhibit the growth of Gram-positive bacteria”. Further, the “Activity (T/C), ratio” value in the data set with P-388 Mice Leukemia (0.25 mg/kg/day) worked out at 151%; in the data set with P-388 Mice Leukemia (0.5 mg/kg/day), 168%; in the data set with P-388 Mice Leukemia (1.0 mg/kg/day) it was 179%.
`CC(O)CC(OC(C)CO)OC1C(N)CC(OC2CC(O)(C(C)O)Cc3c(O)c4c(c(O)c32)C(=O)c2c(O)cccc2C4=O)OC1C` (centres unmarked) [FA-1180 B]: the MIC was over 100 µg/mL in the data set with Pseudomonas aeruginosa H (read-out: MIC); 12.5 µg/mL (≈ 18.9 µM) in the data set with Bacillus subtilis 17 A (read-out: MIC); 50 µg/mL (≈ 75.6 µM) in data set [1] (read-out: MIC); over 100 µg/mL in data set [2] (setting [7]); over 100 µg/mL in the data set on Escherichia coli P3478 (read-out: MIC); over 100 µg/mL in the data set on Escherichia coli W3110 (read-out: MIC). In addition, the MIC in data set [3] (setting [8]) is over 100 µg/mL; in the data set on Escherichia coli NIHJ (read-out: MIC), over 100 µg/mL; against Bacillus cereus IAM 1729 it was 25 µg/mL (≈ 37.8 µM); with Bacillus subtilis 45 T (read-out: MIC), 0.4 µg/mL (≈ 0.605 µM); in [4] (setting [9]), over 100 µg/mL; in the data set on Staphylococcus aureus (read-out: MIC), 50 µg/mL (≈ 75.6 µM). For the same compound, the MIC was 6.25 µg/mL (≈ 9.45 µM) in data set [5] (setting [10]) and over 100 µg/mL in the data set on Candida albicans (read-out: MIC). Further, the IC50 in the data set with Yoshida rat sarcoma (setting [6]) came out at 0.01 µg/mL (≈ 0.0151 µM). Moreover, the antitumor activity entry in the data set on tumor is recorded as “antitumor activity”. Besides, the “ability to inhibit the growth” value in the data set on Gram-positive bacteria is recorded as “strong ability to inhibit the growth of Gram-positive bacteria”. Moreover, in the data set “Solubility”, the Solubility in chloroform result is reported as “soluble”. For the same compound, the Solubility in methanol result in the data set “Solubility” is reported as “freely soluble”. In “Solubility”, the Solubility in n-hexane result was “slightly soluble”. In addition, the figures for the “Activity (T/C), ratio” value with P-388 Mice Leukemia (0.25 mg/kg/day), in the data set on P-388 Mice Leukemia (0.5 mg/kg/day) and with P-388 Mice Leukemia (1.0 mg/kg/day) were 143%, 162% and 190%, respectively.
